According to ChEMBL document CHEMBL4765365, “Design, synthesis and antitumour evaluation of pyrrolo[1,2-f]-phenanthridine and dibenzo[f,h]pyrrolo[1,2-b]isoquinoline derivatives” (Eur J Med Chem, 2020):
pIC50: −log10 of the molar value.

Columns and labels:
NCI-H460 [1] = assay: Induction of cell cycle arrest in human NCI-H460 cells assessed as G2/M phase at 1.5 uM incubated for 12 hrs by PI staining based flow cytometry analysis (reference value: 22.9 +/- 6.8 %); type: functional
NCI-H460 [2] = assay: Induction of cell cycle arrest in human NCI-H460 cells assessed as G2/M phase at 0.75 uM incubated for 36 hrs by PI staining based flow cytometry analysis (reference value: 25 +/- 1.2 %); type: functional
NCI-H460 [3] = assay: Induction of cell cycle arrest in human NCI-H460 cells assessed as G0 phase at 0.75 uM incubated for 36 hrs by PI staining based flow cytometry analysis (reference value: 2.8 +/- 0.7 %); type: functional
NCI-H460 [4] = assay: Induction of apoptosis in human NCI-H460 cells assessed as necrotic cells at 3 uM incubated for 48 hrs by annexin V-FITC and PI staining based flow cytometry analysis (reference value: 0.7 %); type: functional
NCI-H460 [5] = assay: Induction of cell cycle arrest in human NCI-H460 cells assessed as G0 phase at 0.75 uM measured at 0 hrs by PI staining based flow cytometry analysis (reference value: 1.3 +/- 0.9 %); type: functional
NCI-H460 [6] = assay: Induction of cell cycle arrest in human NCI-H460 cells assessed as G1 phase at 3 uM incubated for 24 hrs by PI staining based flow cytometry analysis (reference value: 56.8 +/- 7.6 %); type: functional
NCI-H460 [7] = assay: Induction of cell cycle arrest in human NCI-H460 cells assessed as S phase at 3 uM incubated for 36 hrs by PI staining based flow cytometry analysis (reference value: 7.6 +/- 3.9 %); type: functional
HCT-116 [8] = assay: Cytotoxicity against human HCT-116 cells assessed as reduction in cell viability incubated for 72 hrs by XTT assay; type: functional, cell-based; settings: HCT-116, 72 h
HCT-116 [9] = assay: Induction of cell cycle arrest in human HCT-116 cells assessed as S phase at 1.5 uM incubated for 24 hrs by PI staining based flow cytometry analysis (reference value: 21.2 +/- 5.4 %); type: functional
HCT-116 [10] = assay: Induction of cell cycle arrest in human HCT-116 cells assessed as G2/M phase at 0.75 uM incubated for 12 hrs by PI staining based flow cytometry analysis (reference value: 21.7 +/- 1.9 %); type: functional
HCT-116 [11] = assay: Induction of cell cycle arrest in human HCT-116 cells assessed as G2/M phase at 0.375 uM incubated for 24 hrs by PI staining based flow cytometry analysis (reference value: 9.3 +/- 0.8 %); type: functional
NCI-H460 [12] = assay: Induction of cell cycle arrest in human NCI-H460 cells assessed as G1 phase at 0.75 uM measured at 0 hrs by PI staining based flow cytometry analysis (reference value: 53.4 +/- 4.8 %); type: functional
NCI-H460 [13] = assay: Induction of cell cycle arrest in human NCI-H460 cells assessed as G0 phase at 0.75 uM incubated for 24 hrs by PI staining based flow cytometry analysis (reference value: 1.6 +/- 0.6 %); type: functional
HCT-116 [14] = assay: Induction of cell cycle arrest in human HCT-116 cells assessed as G1 phase at 0.75 uM incubated for 24 hrs by PI staining based flow cytometry analysis (reference value: 55 +/- 9.8 %); type: functional
NCI-H460 [15] = assay: Induction of apoptosis in human NCI-H460 cells assessed as early apoptotic cells at 1.5 uM incubated for 48 hrs by annexin V-FITC and PI staining based flow cytometry analysis (reference value: 2 %); type: functional
[16] = Cytotoxicity against human PacaS1 cells assessed as reduction in cell viability incubated for 72 hrs by XTT assay; type: functional, cell-based; settings: PacaS1, 72 h
NCI-H460 [17] = assay: Induction of cell cycle arrest in human NCI-H460 cells assessed as S phase at 3 uM measured at 0 hrs by PI staining based flow cytometry analysis (reference value: 12.2 +/- 2.8 %); type: functional
NCI-H460 [18] = assay: Induction of cell cycle arrest in human NCI-H460 cells assessed as G0 phase at 3 uM measured at 0 hrs by PI staining based flow cytometry analysis (reference value: 1.3 +/- 0.9 %); type: functional
HCT-116 [19] = assay: Induction of cell cycle arrest in human HCT-116 cells assessed as G1 phase at 0.75 uM incubated for 12 hrs by PI staining based flow cytometry analysis (reference value: 53.6 +/- 4.5 %); type: functional
HCT-116 [20] = assay: Induction of cell cycle arrest in human HCT-116 cells assessed as G0 phase at 0.375 uM measured at 0 hrs by PI staining based flow cytometry analysis (reference value: 0.7 +/- 0.2 %); type: functional
NCI-H460 [21] = assay: Cytotoxicity against human NCI-H460 cells assessed as reduction in cell viability incubated for 72 hrs by XTT assay; type: functional, cell-based; settings: NCI-H460, 72 h
NCI-H460 [22] = assay: Induction of cell cycle arrest in human NCI-H460 cells assessed as G1 phase at 1.5 uM measured at 0 hrs by PI staining based flow cytometry analysis (reference value: 53.4 +/- 4.8 %); type: functional
NCI-H460 [23] = assay: Induction of apoptosis in human NCI-H460 cells assessed as viable cells at 6 uM incubated for 48 hrs by annexin V-FITC and PI staining based flow cytometry analysis (reference value: 90.1 %); type: functional; settings: read-out: Activity
NCI-H460 [24] = assay: Induction of cell cycle arrest in human NCI-H460 cells assessed as G2/M phase at 1.5 uM measured at 0 hrs by PI staining based flow cytometry analysis (reference value: 25.2 +/- 4 %); type: functional
NCI-H1650 = assay: Cytotoxicity against human NCI-H1650 cells assessed as reduction in cell viability incubated for 72 hrs by XTT assay; type: functional, cell-based; settings: NCI-H1650, 72 h
HCT-116 [25] = assay: Induction of cell cycle arrest in human HCT-116 cells assessed as S phase at 0.75 uM incubated for 12 hrs by PI staining based flow cytometry analysis (reference value: 15.5 +/- 0.2 %); type: functional
HCT-116 [26] = assay: Induction of cell cycle arrest in human HCT-116 cells assessed as G0 phase at 1.5 uM incubated for 36 hrs by PI staining based flow cytometry analysis (reference value: 2.5 +/- 0.8 %); type: functional
HCT-116 [27] = assay: Induction of cell cycle arrest in human HCT-116 cells assessed as G2/M phase at 0.375 uM incubated for 36 hrs by PI staining based flow cytometry analysis (reference value: 23.6 +/- 1 %); type: functional
HCT-116 [28] = assay: Induction of cell cycle arrest in human HCT-116 cells assessed as S phase at 1.5 uM measured at 0 hrs by PI staining based flow cytometry analysis (reference value: 12.4 +/- 6.2 %); type: functional
NCI-H460 [29] = assay: Induction of cell cycle arrest in human NCI-H460 cells assessed as G0 phase at 3 uM incubated for 36 hrs by PI staining based flow cytometry analysis (reference value: 2.8 +/- 0.7 %); type: functional
NCI-H460 [30] = assay: Induction of cell cycle arrest in human NCI-H460 cells assessed as G0 phase at 1.5 uM incubated for 24 hrs by PI staining based flow cytometry analysis (reference value: 1.6 +/- 0.6 %); type: functional
NCI-H460 [31] = assay: Induction of cell cycle arrest in human NCI-H460 cells assessed as G0 phase at 1.5 uM incubated for 36 hrs by PI staining based flow cytometry analysis (reference value: 2.8 +/- 0.7 %); type: functional

What does the source list for OCc1cn2c3ccccc3c3ccccc3c2c1CO?
Activity (NCI-H460 [1]): 25.1%; Activity (NCI-H460 [2]): 20.9%; Activity (NCI-H460 [3]): 1.9%; Activity (NCI-H460 [4]): 1.6%; Activity (NCI-H460 [5]): 1.8%; Activity (NCI-H460 [6]): 49.3%; Activity (NCI-H460 [7]): 9.6%; pIC50 (HCT-116 [8]): 5.95; Activity (HCT-116 [9]): 5.7%; Activity (HCT-116 [10]): 23.2%; Activity (HCT-116 [11]): 17.8%; Activity (NCI-H460 [12]): 54.9%; Activity (NCI-H460 [13]): 1.8%; Activity (HCT-116 [14]): 57.4%; Activity (NCI-H460 [15]): 3.6%; pIC50 [16]: 5.85; Activity (NCI-H460 [17]): 12.2%; Activity (NCI-H460 [18]): 1.3%; Activity (HCT-116 [19]): 51.6%; Activity (HCT-116 [20]): 0.6%; pIC50 (NCI-H460 [21]): 5.50; Activity (NCI-H460 [22]): 55.5%; viability at 6 µM (NCI-H460 [23]): 13.4%; Activity (NCI-H460 [24]): 23.9%; pIC50 (NCI-H1650): 5.43; Activity (HCT-116 [25]): 16.9%; Activity (HCT-116 [26]): 18.2%; Activity (HCT-116 [27]): 23.4%; Activity (HCT-116 [28]): 12.6%; Activity (NCI-H460 [29]): 8.7%; Activity (NCI-H460 [30]): 2.8%; Activity (NCI-H460 [31]): 3.3%
